Laboratory results reported in paper PMC11504268 (Antibiotics, 2024).
Like-named read-outs stand apart in the source and are kept apart here.

Tests used:
[1] = Protocol: The estimation of parameters, including fixed and random effects, was conducted using first-order conditional estimation with the interaction method. This enables modelling of the interaction between the IIV in PK parameters and the residual variability (RV) in measured concentrations. […] Each model adhered to first-order kinetics, except the zero-order infusion processes. Each PK parameter in the model was described by the equation θi = θ × exp (ηi), where θ denotes the typical value of the PK parameter, θi is the individual PK parameter value for each participant, and ηi is a random variable encapsulating IIV. We hypothesised that IIV is normally distributed, with a mean of zero and variance ω^2. RV was modelled as normally distributed with a mean of zero and a variance σ^2. Additionally, we evaluated additive, proportional, and combined additive-proportional error models. The methods used to select and validate models encompassed several criteria: variations in NONMEM objective function values (OFVs), the accuracy of parameter estimates as reflected by relative standard errors, goodness-of-fit plots, VPC, and bootstrap evaluations. […] Model validation processes included the creation of conditional weighted residual plots versus time and against population predictions (PRED), in addition to comparisons between observed data and both PRED and individual predictions. […] The variability in the final model predictions was analysed using the median and 95% confidence intervals from 2000 bootstrap replicates. We identified significant covariates influencing pharmacokinetic (PK) parameters through a process of stepwise forward selection and backward elimination, with inclusion thresholds of p < 0.01 (ΔOFV < −6.635) and exclusion thresholds of p < 0.001 (ΔOFV > 10.83) for single degree-of-freedom tests. Covariates were assessed for both their statistical and clinical relevance, taking into account demographic factors (such as gender, age, weight, height, body mass index, and body surface area) and biochemical markers (including serum protein, albumin, creatinine, and cystatin C levels). […] We utilised Perl-speaks-NONMEM (PSN, version 5.3.1, [https://uupharmacometrics.github.io/PsN], accessed on 13 April 2023) for covariate identification, VPC execution, and nonparametric bootstrapping to evaluate model robustness. Data analysis and graphical outputs were conducted using the R programming environment (version 4.4.0, [www.rproject.org], Vienna, Austria, accessed on 6 June 2024).
[2] = cited from earlier work; for average AUC: critically ill patients, daily dose 30 mg/kg
Remark: listed apart in the source
[3] = final model, 2000 bootstrap replicates
[4] = final model, Q = θ5 × (WT/69.45)^θ6
[5] = final model, V2 = θ7 × (BSA/1.80)^θ8
[6] = healthy adults n = 12, 1 g i.v. over 2 h, plasma, NCA, mean (CV%)
[7] = healthy adults n = 12, 1 g i.v. over 2 h, plasma, NCA, median (IQR)

C[C@@H](O)[C@H]1C(=O)N2C(C(=O)O)=C(S[C@@H]3CN[C@H](C(=O)N(C)C)C3)[C@H](C)[C@H]12 [meropenem]
V1, Estimates ([1]; in vivo): 15.1 L
V2, Estimates ([1]; in vivo): 26.2 L

CN[C@H](CC(C)C)C(=O)N[C@H]1C(=O)N[C@@H](CC(N)=O)C(=O)N[C@H]2C(=O)N[C@H]3C(=O)N[C@H](C(=O)N[C@H](C(=O)O)c4cc(O)cc(O)c4-c4cc3ccc4O)[C@H](O)c3ccc(c(Cl)c3)Oc3cc2cc(c3O[C@@H]2O[C@H](CO)[C@@H](O)[C@H](O)[C@H]2O[C@H]2C[C@](C)(N)[C@H](O)[C@H](C)O2)Oc2ccc(cc2Cl)[C@H]1O [vancomycin]
clearance rate per kg ([1]; final model typical CL 8.83 L/h expressed per kg, healthy adults with normal renal function): 0.127 L/h/kg
θ1, typical total clearance CL, Bootstrap Median (95% CI) [1, 3]: 8.78 (8.14–9.6) L/h
θ4, central volume of distribution V1, Bootstrap Median (95% CI) [1, 3]: 12.8 (3.94–19.6) L
θ5, intercompartmental clearance Q, Bootstrap Median (95% CI) [1, 3]: 20.4 (16.8–28.2) L/h
θ6, exponent of weight on Q, Bootstrap Median (95% CI) [1, 3]: 2.31 (1.36–3.35)
θ7, peripheral volume of distribution V2, Bootstrap Median (95% CI) [1, 3]: 27.8 (25.0–31.0) L
θ8, exponent of BSA on V2, Bootstrap Median (95% CI) [1, 3]: 3.13 (1.79–3.73)
θ1, typical total clearance CL, Estimates ([1]; final model, CL = θ1 × (WT/69.45)^θ2 × (AGE/38.5)^θ3, 12 healthy adults): 8.83 L/h
θ5, intercompartmental clearance Q, Estimates [1, 4]: 20.2 L/h
θ6, exponent of weight on Q, Estimates [1, 4]: 2.38
θ4, central volume of distribution V1, Estimates ([1]; final model, V1 = θ4): 12.9 L
θ7, peripheral volume of distribution V2, Estimates [1, 5]: 27.4 L
θ8, exponent of BSA on V2, Estimates [1, 5]: 3.09
VC, Mean (CV%) ([1]; individual parameters from population PK, central volume of distribution, n = 12, mean (CV%)): 0.211 (48.0) L/kg
VC, Median (IQR) ([1]; individual parameters from population PK, central volume of distribution, n = 12, median (IQR)): 0.163 (0.144–0.251) L/kg
t1/2α, Mean (CV%) ([1]; individual parameters from population PK, distribution phase half-life, n = 12, mean (CV%)): 0.270 (42.7) h
AUCtau, Mean (CV%) ([1]; individual parameters from population PK, dose/CL, 1 g, n = 12, mean (CV%)): 113 (28.9) mg·h/L
AUCtau, Median (IQR) ([1]; individual parameters from population PK, dose/CL, 1 g, n = 12, median (IQR)): 111 (81.9–137) mg·h/L
t1/2β, Mean (CV%) ([1]; individual parameters from population PK, elimination phase half-life, n = 12, mean (CV%)): 3.88 (12.5) h
Vss, Mean (CV%) ([1]; individual parameters from population PK, steady-state volume of distribution, n = 12, mean (CV%)): 0.611 (16.5) L/kg
Vss, Median (IQR) ([1]; individual parameters from population PK, steady-state volume of distribution, n = 12, median (IQR)): 0.593 (0.565–0.650) L/kg
CL, Mean (CV%) ([1]; individual parameters from population PK, total clearance, healthy adults n = 12, 1 g i.v. over 2 h, mean (CV%)): 0.135 (17.0) L/h/kg
CL, Median (IQR) ([1]; individual parameters from population PK, total clearance, healthy adults n = 12, median (IQR)): 0.131 (0.117–0.144) L/h/kg
Q, Estimates ([1]; two-compartment base model): 17.8 L/h
vancomycin clearance ([2]; ICU patients, CLCR 130 mL/min): 6.20 L/h
vancomycin clearance ([2]; ICU patients, CLCR 180 mL/min): 8.61 L/h
vancomycin clearance ([2]; critically ill ARC patients, average CLCR 180.8 mL/min): 9.7 L/h
vancomycin clearance ([2]; critically ill non-ARC patients, average CLCR 103.4 mL/min): 6.5 L/h
average AUC ([2]; 139 patients with augmented renal clearance (ARC)): 232.9 µg·h/mL
average AUC ([2]; 141 patients without ARC): 316.2 µg·h/mL
vancomycin clearance ([2]; patients with ARC): 5.55 L/h
vancomycin clearance ([2]; patients with non-ARC): 4.04 L/h
vancomycin clearance ([2]; patients with thermal or inhalation injuries, TBSA burns 10–19%): 8.2 L/h
vancomycin clearance ([2]; patients with thermal or inhalation injuries, TBSA burns 20–29%): 8.9 L/h
vancomycin clearance ([2]; patients with thermal or inhalation injuries, TBSA burns < 10%): 6.9 L/h
Cmax, Mean (CV%) (healthy Korean adults n = 12, single 1 g i.v. infusion over 2 h, plasma, LC-MS/MS, NCA, mean (CV%)): 23.4 (34.4) mg/L
Cmax, Median (IQR) (healthy Korean adults n = 12, single 1 g i.v. infusion over 2 h, plasma, LC-MS/MS, NCA, median (IQR)): 20.8 (17.0–27.1) mg/L
AUCinf, Mean (CV%) [6]: 106 (30.5) mg·h/L
AUClast, Mean (CV%) [6]: 78.7 (28.2) mg·h/L
AUMCinf, Mean (CV%) [6]: 667 (40.0) mg·h^2/L
AUMClast, Mean (CV%) [6]: 289 (26.7) mg·h^2/L
MRTinf, Mean (CV%) [6]: 5.12 (18.9) h
AUCinf, Median (IQR) [7]: 97.1 (76.1–140) mg·h/L
AUClast, Median (IQR) [7]: 73.6 (58.5–90.4) mg·h/L
AUMCinf, Median (IQR) [7]: 587 (464–807) mg·h^2/L
AUMClast, Median (IQR) [7]: 279 (217–341) mg·h^2/L
MRTinf, Median (IQR) [7]: 4.98 (4.46–5.60) h
VssNCA, Mean (CV%) (steady-state Vd by NCA, healthy adults n = 12, 1 g i.v. over 2 h, mean (CV%)): 0.730 (15.7) L/kg
VssNCA, Median (IQR) (steady-state Vd by NCA, healthy adults n = 12, 1 g i.v. over 2 h, median (IQR)): 0.714 (0.650–0.802) L/kg
t1/2λz, Mean (CV%) (terminal elimination half-life, NCA, healthy adults n = 12, 1 g i.v. over 2 h, mean (CV%)): 3.87 (21.3) h
t1/2λz, Median (IQR) (terminal elimination half-life, NCA, healthy adults n = 12, 1 g i.v. over 2 h, median (IQR)): 3.58 (3.34–4.25) h
CLNCA, Mean (CV%) (total body clearance by NCA, healthy adults n = 12, 1 g i.v. over 2 h, mean (CV%)): 0.146 (19.8) L/h/kg
CLNCA, Median (IQR) (total body clearance by NCA, healthy adults n = 12, 1 g i.v. over 2 h, median (IQR)): 0.135 (0.128–0.160) L/h/kg
VzZNCA, Mean (CV%) (volume of distribution by NCA, healthy adults n = 12, 1 g i.v. over 2 h, mean (CV%)): 0.793 (15.4) L/kg
VzZNCA, Median (IQR) (volume of distribution by NCA, healthy adults n = 12, 1 g i.v. over 2 h, median (IQR)): 0.806 (0.701–0.873) L/kg
